PubChem BioAssay (NCI)
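Values below derive from 48-hour exposures of cells grown in 96-well plates, with endpoints linearly interpolated between the two concentrations bracketing the appropriate inhibition level. The concentration for 50% growth inhibition is given as GI50. At the TGI there is no net growth.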

Experiments:
Assay in all cases: NCI anticancer screen, dose series, 48 h
K-562 leukemia = system: K-562 leukemia
SR leukemia = system: SR leukemia
A549 NSCLC = system: A549 NSCLC
SN12C renal = system: SN12C renal
SK-MEL-2 melanoma = system: SK-MEL-2 melanoma
TK-10 renal = system: TK-10 renal
ACHN renal = system: ACHN renal
SW-620 colon = system: SW-620 colon
SNB-75 CNS = system: SNB-75 CNS
HCC-2998 colon = system: HCC-2998 colon
A498 renal = system: A498 renal
MCF7 breast = system: MCF7 breast
NCI/ADR-RES ovarian = system: NCI/ADR-RES ovarian
COLO 205 colon = system: COLO 205 colon
T-47D breast = system: T-47D breast
SF-268 CNS = system: SF-268 CNS
BT-549 breast = system: BT-549 breast
CAKI-1 renal = system: CAKI-1 renal
OVCAR-8 ovarian = system: OVCAR-8 ovarian
HS 578T breast = system: HS 578T breast
HT29 colon = system: HT29 colon
786-0 renal = system: 786-0 renal
NCI-H226 lung = system: NCI-H226 lung
OVCAR-4 ovarian = system: OVCAR-4 ovarian
SK-MEL-5 melanoma = system: SK-MEL-5 melanoma
OVCAR-3 ovarian = system: OVCAR-3 ovarian
SK-MEL-28 melanoma = system: SK-MEL-28 melanoma
RPMI-8226 leukemia = system: RPMI-8226 leukemia
SF-539 CNS = system: SF-539 CNS
NCI-H460 lung = system: NCI-H460 lung
PC-3 prostate = system: PC-3 prostate
RXF 393 renal = system: RXF 393 renal
MDA-MB-231 breast = system: MDA-MB-231 breast
SK-OV-3 ovarian = system: SK-OV-3 ovarian
SF-295 CNS = system: SF-295 CNS
UACC-257 melanoma = system: UACC-257 melanoma
HOP-62 NSCLC = system: HOP-62 NSCLC
LOX IMVI melanoma = system: LOX IMVI melanoma
DU-145 prostate = system: DU-145 prostate
NCI-H23 lung = system: NCI-H23 lung
UO-31 renal = system: UO-31 renal
MOLT-4 leukemia = system: MOLT-4 leukemia
U251 CNS = system: U251 CNS
MALME-3M melanoma = system: MALME-3M melanoma
IGROV1 ovarian = system: IGROV1 ovarian
KM12 colon = system: KM12 colon
CCRF-CEM leukemia = system: CCRF-CEM leukemia
MDA-MB-435 = system: MDA-MB-435
HOP-92 NSCLC = system: HOP-92 NSCLC
HCT-116 colon = system: HCT-116 colon
OVCAR-5 ovarian = system: OVCAR-5 ovarian
SNB-19 CNS = system: SNB-19 CNS
NCI-H522 lung = system: NCI-H522 lung
UACC-62 melanoma = system: UACC-62 melanoma
HL-60(TB) leukemia = system: HL-60(TB) leukemia
HCT-15 colon = system: HCT-15 colon
EKVX NSCLC = system: EKVX NSCLC
M14 melanoma = system: M14 melanoma

`CCN(CC)CCC(CNc1ccnc2cc(Cl)ccc12)c1ccccc1` (stereo unspecified) gave a GI50 (K-562 leukemia) of 1.46 µM, a TGI (K-562 leukemia) of 5.61 µM and a GI50 (SR leukemia) of 2.23 µM. The TGI (SR leukemia) was 8.48 µM, the GI50 (A549 NSCLC) was 11.6 µM and the TGI (A549 NSCLC) was 26.3 µM. For the same compound, the GI50 (SN12C renal) was 16.3 µM, the TGI (SN12C renal) was greater than 100 µM and the GI50 (SK-MEL-2 melanoma) was 1.95 µM. It also gave a TGI (SK-MEL-2 melanoma) of 4.06 µM, a GI50 (TK-10 renal) of 2.11 µM and a TGI (TK-10 renal) of 6.27 µM. It also gave a GI50 (ACHN renal) of 3.91 µM, a TGI (ACHN renal) of 14.7 µM and a GI50 (SW-620 colon) of 4.81 µM. For the same compound, the TGI (SW-620 colon) was 22.2 µM, the GI50 (SNB-75 CNS) was 2.61 µM and the TGI (SNB-75 CNS) was 9.82 µM. For the same compound, the GI50 (HCC-2998 colon) was 2.09 µM, the TGI (HCC-2998 colon) was 6.6 µM and the GI50 (A498 renal) was 2.41 µM. The TGI (A498 renal) was 13 µM, the GI50 (MCF7 breast) was 4.75 µM and the TGI (MCF7 breast) was 18 µM. For the same compound, the GI50 (NCI/ADR-RES ovarian) was 9.92 µM, the TGI (NCI/ADR-RES ovarian) was 48.4 µM and the GI50 (COLO 205 colon) was 1.45 µM. The TGI (COLO 205 colon) was 3.33 µM, the GI50 (T-47D breast) was 2.85 µM and the TGI (T-47D breast) was 8.08 µM. For the same compound, the GI50 (SF-268 CNS) was 7.85 µM, the TGI (SF-268 CNS) was 41 µM and the GI50 (BT-549 breast) was 10.8 µM. The TGI (BT-549 breast) was 24.6 µM, the GI50 (CAKI-1 renal) was 3.52 µM and the TGI (CAKI-1 renal) was 18.5 µM. It also gave a GI50 (OVCAR-8 ovarian) of 5.05 µM, a TGI (OVCAR-8 ovarian) of 20.5 µM and a GI50 (HS 578T breast) of 11.5 µM. For the same compound, the TGI (HS 578T breast) was 43 µM, the GI50 (HT29 colon) was 0.493 µM and the TGI (HT29 colon) was 10.4 µM. It also gave a GI50 (786-0 renal) of 3.69 µM, a TGI (786-0 renal) of 13.5 µM and a GI50 (NCI-H226 lung) of 11.3 µM. It also gave a TGI (NCI-H226 lung) of 41.1 µM, a GI50 (OVCAR-4 ovarian) of 5.89 µM and a TGI (OVCAR-4 ovarian) of 35.7 µM. It also gave a GI50 (SK-MEL-5 melanoma) of 1.69 µM, a TGI (SK-MEL-5 melanoma) of 3.07 µM and a GI50 (OVCAR-3 ovarian) of 14.9 µM. It also gave a TGI (OVCAR-3 ovarian) greater than 100 µM, a GI50 (SK-MEL-28 melanoma) of 1.92 µM and a TGI (SK-MEL-28 melanoma) of 3.45 µM. The GI50 (RPMI-8226 leukemia) was 3.11 µM, the TGI (RPMI-8226 leukemia) was 13.5 µM and the GI50 (SF-539 CNS) was 1.81 µM. It also gave a TGI (SF-539 CNS) of 4.11 µM, a GI50 (NCI-H460 lung) of 8.36 µM and a TGI (NCI-H460 lung) of 29 µM. For the same compound, the GI50 (PC-3 prostate) was 13.9 µM, the TGI (PC-3 prostate) was 69.9 µM and the GI50 (RXF 393 renal) was 2.3 µM. The TGI (RXF 393 renal) was 5.65 µM, the GI50 (MDA-MB-231 breast) was 2.18 µM and the TGI (MDA-MB-231 breast) was 15.8 µM. It also gave a GI50 (SK-OV-3 ovarian) of 18.4 µM, a TGI (SK-OV-3 ovarian) of 52.8 µM and a GI50 (SF-295 CNS) of 1.83 µM. The TGI (SF-295 CNS) was 4.79 µM, the GI50 (UACC-257 melanoma) was 1.86 µM and the TGI (UACC-257 melanoma) was 3.36 µM. For the same compound, the GI50 (HOP-62 NSCLC) was 12.1 µM, the TGI (HOP-62 NSCLC) was 48.9 µM and the GI50 (LOX IMVI melanoma) was 1.77 µM. The TGI (LOX IMVI melanoma) was 5.17 µM, the GI50 (DU-145 prostate) was 32.9 µM and the TGI (DU-145 prostate) was greater than 100 µM. For the same compound, the GI50 (NCI-H23 lung) was 11.5 µM, the TGI (NCI-H23 lung) was 38.8 µM and the GI50 (UO-31 renal) was 2.72 µM. For the same compound, the TGI (UO-31 renal) was 14.3 µM, the GI50 (MOLT-4 leukemia) was 4.66 µM and the TGI (MOLT-4 leukemia) was 58.2 µM. The GI50 (U251 CNS) was 3.93 µM, the TGI (U251 CNS) was 14 µM and the GI50 (MALME-3M melanoma) was 2.05 µM. The TGI (MALME-3M melanoma) was 3.88 µM, the GI50 (IGROV1 ovarian) was 7.98 µM and the TGI (IGROV1 ovarian) was 55.7 µM. For the same compound, the GI50 (KM12 colon) was 7.29 µM, the TGI (KM12 colon) was 75.1 µM and the GI50 (CCRF-CEM leukemia) was 4.02 µM. For the same compound, the TGI (CCRF-CEM leukemia) was 36.5 µM, the GI50 (MDA-MB-435) was 2.01 µM and the TGI (MDA-MB-435) was 5.02 µM. It also gave a GI50 (HOP-92 NSCLC) of 4.51 µM, a TGI (HOP-92 NSCLC) of 21 µM and a GI50 (HCT-116 colon) of 2.8 µM. The TGI (HCT-116 colon) was 15.4 µM, the GI50 (OVCAR-5 ovarian) was 16.9 µM and the TGI (OVCAR-5 ovarian) was 73.3 µM. For the same compound, the GI50 (SNB-19 CNS) was 16.2 µM, the TGI (SNB-19 CNS) was 74.1 µM and the GI50 (NCI-H522 lung) was 2.58 µM. It also gave a TGI (NCI-H522 lung) of 11.7 µM, a GI50 (UACC-62 melanoma) of 2.04 µM and a TGI (UACC-62 melanoma) of 5.05 µM. For the same compound, the GI50 (HL-60(TB) leukemia) was 4.22 µM, the TGI (HL-60(TB) leukemia) was 29.2 µM and the GI50 (HCT-15 colon) was 3.51 µM. It also gave a TGI (HCT-15 colon) of 20.8 µM, a GI50 (EKVX NSCLC) of 28.5 µM and a TGI (EKVX NSCLC) greater than 100 µM. For the same compound, the GI50 (M14 melanoma) was 1.71 µM and the TGI (M14 melanoma) was 3.19 µM.
